Assay results published in patent US9862925B2, “Human stem cell-derived neural precursors for treatment of autoimmune diseases of the central nervous system” (Hadasit Medical Research Services & Development Limited, priority 2007, dated 2018).

Assays:
[1] = test system: hESC-derived multipotent uncommitted neural precursors; experiment: Oligodendroglial differentiation of hESCs with retinoic acid and purmorphamine, propagation in low purmorphamine; format: cell-based, human
Procedure: To derive an expandable population of neural precursors enriched for oligodendroglial progenitors (committed), initial neuralization of hESCs was induced as above with or without noggin supplementation. After 2 weeks of culturing in NPM supplemented with mitogens +/−noggin the clusters were treated with RA (1-10 μM; preferably 1 μM) and the hedgehog agonist, Purmurphamine (Merck) (0.5-2 μM; preferably 0.5 μM) to induce ventral-caudal specification of the neuralized cells. Following 7-21 days, preferably 21 days of treatment, the cultures were further propagated for three to 20 more weeks as floating spheres in modified Sato medium supplemented with low concentrations of purmorphamine (0.2-0.5 μM; preferably 0.5 μM), bFGF (20 ng/ml), EGF (20 ng/ml), (NT3; 5 ng/ml) and ascorbic acid (200 nM). For final differentiation, the clusters were plated on poly-D-Lysine (10 μg/ml) and fibronectin (5 μg/ml) coated coverslips in modified Sato medium supplemented with NT3 ([…]), ascorbic acid (200 nM) T3 (40 ng/ml) IGF1 (10 ng/ml;) with or without Rock inhibitor (10 μM; Sigma) for 2-21 days.
To develop expandable cultures enriched for oligodendroglial committed progenitors, hESCs clusters were induced to differentiate as free floating clusters into multipotent uncommitted neural precursors as above with or without noggin. After two weeks of initial neural induction the multipotent uncommitted neural precursors were further cultured for 1-3 weeks, preferably 3 weeks, as floating spheres in modified Sato medium supplemented with mitogens, retinoic acid (RA) and the hedgehog (HH) agonist purmorphamine. During this culture period the early multipotent neural precursors gradually become enriched with Olig2+ oligodendroglial precursors (30-50% of total cells).
For further expansion of the oligodendroglial precursors, the floating spheres were propagated in Sato medium supplemented with mitogens, and low concentrations (0.5 μM) of purmorphamine. After 3-20 weeks of propagation as free floating clusters and plating on fibronectin for 24-48 hours, expression of the OPC markers Olig2 (FIG. 8A), PDGFRα (FIG. 8B) and NG2 (FIG. 8C) were detected in 30%, 20% and 20% of the differentiating cells, respectively. Following further 7-21 days of differentiation in the presence of NT3, AA, T3 and IGF1 +/− Rock inhibitor, markers of mature oligodendrocytes such as O4 (FIG. 8D), GalC (FIG. 8E) and MBP (FIG. 8F) were detected in 20%, 15% and 3% of the plated cells, respectively.

hESCs = experiment: In vitro oligodendroglial differentiation of hESCs following retinoic acid treatment; format: cell-based, human; details: RA treatment
Procedure: Derivation of enriched population of committed oligodendrocyte progenitor cells (OPCs): Initial neural differentiation of hESC was induced as described above for the derivation of enriched population of uncommitted neural precursors. Following two weeks of culturing of hESC clusters in NPM supplemented with noggin (700 ng/ml), and the oligodendroglial mitogens bFGF (20 ng/ml) and EGF (20 ng/ml), the cultures were treated with retinoic acid (RA) (sigma) (10 μM) to induce caudal specification of the neuralized cells. Following 7 days of RA treatment, cultures were propagated as floating spheres in the oligodendroglial specific, modified Sato medium supplemented with the oligodendroglial mitogens bFGF (20 ng/ml), EGF (20 ng/ml) and PDGF-AA (50 ng/ml), and the oligodendroglial survival and maturation factors neurotrophine 3 (NT3) (5 ng/ml) and triiodothyronine (T3) (40 ng/ml).
In vitro oligodendroglial differentiation of hESCs was examined. The experimental protocol included initial induction of human ESCs to differentiate as free floating clusters, under defined culture conditions, in the presence of noggin into early multipotent neural precursors according to the published protocols as described above. After two weeks, they were treated with retinoic acid (RA) and propagated as floating spheres in modified Sato medium and mitogens At sequential week intervals, differentiation was induced by plating on fibronectin and withdrawal of the mitogens, and the expression of oligodendroglial markers were analyzed by immunostaining. After three weeks of propagation as free floating clusters, followed by plating and differentiation for 48 hours, the differentiating cells expressed the oligodendroglial markers NG2 (12%) (FIGS. 7A,[…], 7D, 7F) GD3 (20%) (FIGS. 7B, 7C) and PDGFRα (15%) (FIGS. 7E, 7F). Although at this stage of three weeks propagation, when enrichment for OPCs was obtained, markers of mature oligodendrocytes such as O4 and GalC were not detected, even after 7-10 days of differentiation. Only in cultures that were propagated for more than 5 weeks and induced to differentiate for 7 days, O4 and GalC were expressed by 3% and 1% of differentiating cells, respectively (FIGS. 7G, 7I (O4) and FIGS. 7H, 7I (GalC). Nuclei in FIGS. 7C, 7F, 7G-7I were counter stained with DAPI.

[2] = after RA + purmorphamine, 3-20 weeks propagation with 0.5 μM purmorphamine, plated on fibronectin 24-48 hours
[3] = propagation with 0.5 μM purmorphamine, further 7-21 days differentiation with NT3, AA, T3, IGF1 +/- Rock inhibitor
[4] = propagated more than 5 weeks, differentiated 7 days
[5] = three weeks propagation as floating clusters, differentiation 48 hours

| SMILES | Olig2+ oligodendroglial precursors (of total cells) ([1]; 1-3 weeks as floating spheres in modified Sato medium with mitogens, RA and purmorphamine) | differentiating cells expressing NG2 [1, 2] [%] | differentiating cells expressing Olig2 [1, 2] [%] | differentiating cells expressing PDGFRα [1, 2] [%] | plated cells expressing GalC [1, 3] [%] | plated cells expressing MBP [1, 3] [%] | plated cells expressing O4 [1, 3] [%] | differentiating cells expressing GalC (hESCs; [4]) [%] | differentiating cells expressing O4 (hESCs; [4]) [%] | differentiating cells expressing GD3 (hESCs; [5]) [%] | differentiating cells expressing NG2 (hESCs; [5]) [%] | differentiating cells expressing PDGFRα (hESCs; [5]) [%] |
| --- | --- | --- | --- | --- | --- | --- | --- | --- | --- | --- | --- | --- |
| c1ccc2c(Oc3nc(Nc4ccc(N5CCOCC5)cc4)c4ncn(C5CCCCC5)c4n3)cccc2c1 [purmorphamine] | 30-50% | 20 | 30 | 20 | 15 | 3 | 20 |  |  |  |  |  |
| CC1=C(/C=C/C(C)=C/C=C/C(C)=C/C(=O)O)C(C)(C)CCC1 [retinoic acid] |  |  |  |  |  |  |  | 1 | 3 | 20 | 12 | 15 |
